The NIST ThermoML archive (doi:10.1021/je500450w)
Numbers after ± are expanded uncertainties.

Settings: 101 kPa, Liquid mixture 1

Compound | interfacial tension (293.2 K, Drop weight) | interfacial tension (298.2 K, Drop weight) | interfacial tension (303.2 K, Drop weight) | interfacial tension (308.2 K, Drop weight) | interfacial tension (313.2 K, Drop weight) | interfacial tension (318.2 K, Drop weight) | interfacial tension (323.2 K, Drop weight) | interfacial tension (328.2 K, Drop weight) | interfacial tension (333.2 K, Drop weight) | interfacial tension (338.2 K, Drop weight) | interfacial tension (343.2 K, Drop weight) | interfacial tension (293.2 K) | interfacial tension (298.2 K) | interfacial tension (303.2 K) | interfacial tension (313.2 K) | interfacial tension (323.2 K) | interfacial tension (333.2 K) | interfacial tension (343.2 K)
CCCCCCCO [heptan-1-ol] + O | 6.37 ± 0.12 mN/m | 6.44 ± 0.12 mN/m | 6.52 ± 0.12 mN/m | – | 6.6 ± 0.12 mN/m | – | 6.62 ± 0.12 mN/m | – | 6.58 ± 0.12 mN/m | – | 6.46 ± 0.12 mN/m | – | – | – | – | – | – | –
CCCCCC [hexane] + O | 50.81 ± 0.46 mN/m | 50.49 ± 0.45 mN/m | 50.11 ± 0.45 mN/m | 49.68 ± 0.45 mN/m | 49.28 ± 0.44 mN/m | 48.84 ± 0.44 mN/m | 48.46 ± 0.44 mN/m | 47.94 ± 0.43 mN/m | 46.92 ± 0.43 mN/m | – | – | – | – | – | – | – | – | –
CCCCCCO [hexan-1-ol] + O | 7.37 ± 0.12 mN/m | 7.49 ± 0.13 mN/m | 7.6 ± 0.13 mN/m | – | 7.7 ± 0.13 mN/m | – | 7.86 ± 0.13 mN/m | – | 7.9 ± 0.13 mN/m | – | 7.87 ± 0.13 mN/m | – | – | – | – | – | – | –
CCCCCCC [heptane] + O | 51.3 ± 0.46 mN/m | 50.87 ± 0.46 mN/m | 50.35 ± 0.45 mN/m | 49.84 ± 0.45 mN/m | 49.6 ± 0.45 mN/m | 49 ± 0.44 mN/m | 48.54 ± 0.44 mN/m | 48.1 ± 0.44 mN/m | 47.73 ± 0.43 mN/m | 47.28 ± 0.43 mN/m | 46.7 ± 0.42 mN/m | – | – | – | – | – | – | –
c1ccccc1 [benzene] + O | 34.82 ± 0.33 mN/m | 34.06 ± 0.33 mN/m | 33.64 ± 0.32 mN/m | 32.87 ± 0.32 mN/m | 32.1 ± 0.31 mN/m | 31.62 ± 0.31 mN/m | 30.95 ± 0.3 mN/m | 30.92 ± 0.3 mN/m | 30.52 ± 0.3 mN/m | – | – | – | – | – | – | – | – | –

Second part, the compound after the results:

interfacial tension (293.2 K, Drop weight) | interfacial tension (298.2 K, Drop weight) | interfacial tension (303.2 K, Drop weight) | interfacial tension (308.2 K, Drop weight) | interfacial tension (313.2 K, Drop weight) | interfacial tension (318.2 K, Drop weight) | interfacial tension (323.2 K, Drop weight) | interfacial tension (328.2 K, Drop weight) | interfacial tension (333.2 K, Drop weight) | interfacial tension (338.2 K, Drop weight) | interfacial tension (343.2 K, Drop weight) | interfacial tension (293.2 K) | interfacial tension (298.2 K) | interfacial tension (303.2 K) | interfacial tension (313.2 K) | interfacial tension (323.2 K) | interfacial tension (333.2 K) | interfacial tension (343.2 K) | Compound
51.95 ± 0.46 mN/m | 51.54 ± 0.46 mN/m | 51.11 ± 0.46 mN/m | 50.68 ± 0.46 mN/m | 50.23 ± 0.45 mN/m | 49.63 ± 0.45 mN/m | 49.09 ± 0.44 mN/m | 48.46 ± 0.44 mN/m | 48.03 ± 0.43 mN/m | 47.61 ± 0.43 mN/m | 46.96 ± 0.43 mN/m | – | – | – | – | – | – | – | CCCCCCCCC [nonane] + O
51.67 ± 0.46 mN/m | 51.2 ± 0.46 mN/m | 50.78 ± 0.46 mN/m | 50.28 ± 0.45 mN/m | 49.9 ± 0.45 mN/m | 49.31 ± 0.44 mN/m | 48.86 ± 0.44 mN/m | 48.34 ± 0.44 mN/m | 47.81 ± 0.43 mN/m | 47.33 ± 0.43 mN/m | 46.82 ± 0.43 mN/m | – | – | – | – | – | – | – | CCCCCCCC [octane] + O
8.02 ± 0.13 mN/m | 8.19 ± 0.13 mN/m | 8.42 ± 0.13 mN/m | – | 8.62 ± 0.13 mN/m | – | 8.83 ± 0.13 mN/m | – | 9.02 ± 0.13 mN/m | – | 9.02 ± 0.13 mN/m | – | – | – | – | – | – | – | CCCCCCCCO [octan-1-ol] + O
– | – | – | – | – | – | – | – | – | – | – | 8.18 ± 0.25 mN/m | 8.48 ± 0.26 mN/m | 9 ± 0.26 mN/m | 9.15 ± 0.27 mN/m | 9.86 ± 0.28 mN/m | 9.67 ± 0.27 mN/m | 9.72 ± 0.27 mN/m | CCCCCCCCCO [nonan-1-ol] + O
